# Key:
# [1] = Lipophilicity, log P of the compound; type: physicochemical; settings: octanol/water
# [2] = biological target: T1, ATP-dependent translocase ABCB1 (Homo sapiens, UniProt P08183); test: Reversal of P-glycoprotein-mediated multidrug resistance in human MDR1 gene transfected mouse L5178 cells assessed as fluorescence activity ratio at 4 ug/ml by rhodamine-123 exclusion test; type: cell-based
# [3] = biological target: T1, ATP-dependent translocase ABCB1; test: Reversal of P-glycoprotein-mediated multidrug resistance in human MDR1 gene transfected mouse L5178 cells assessed as mean fluorescence intensity at 4 ug/ml by rhodamine-123 exclusion test; type: cell-based
# [4] = biological target: T1, ATP-dependent translocase ABCB1; test: Reversal of P-glycoprotein-mediated multidrug resistance in human MDR1 gene transfected mouse L5178 cells assessed as fluorescence activity ratio at 40 ug/ml by flow cytometry; type: cell-based
# [5] = biological target: T1, ATP-dependent translocase ABCB1; test: Reversal of P-glycoprotein-mediated multidrug resistance in human MDR1 gene transfected mouse L5178 cells assessed as mean fluorescence intensity at 40 ug/ml by rhodamine-123 exclusion test; type: cell-based
# [6] = Antiproliferative activity against parental mouse L5178 cells after 72 hrs MTT assay; type: functional; settings: L5178, 72 h, read-out: ID50 (the source's name)
# [7] = Antiproliferative activity against multidrug-resistant mouse L5178 cells after 72 hrs MTT assay; type: functional; settings: L5178, 72 h, read-out: ID50 (the source's name)
# [8] = Potentiation of epirubicin-induced cytotoxicity against mouse L5178 cells assessed as fractional inhibitory index by checkerboard microplate method; type: functional
# T1 sequence (P08183 whole entry): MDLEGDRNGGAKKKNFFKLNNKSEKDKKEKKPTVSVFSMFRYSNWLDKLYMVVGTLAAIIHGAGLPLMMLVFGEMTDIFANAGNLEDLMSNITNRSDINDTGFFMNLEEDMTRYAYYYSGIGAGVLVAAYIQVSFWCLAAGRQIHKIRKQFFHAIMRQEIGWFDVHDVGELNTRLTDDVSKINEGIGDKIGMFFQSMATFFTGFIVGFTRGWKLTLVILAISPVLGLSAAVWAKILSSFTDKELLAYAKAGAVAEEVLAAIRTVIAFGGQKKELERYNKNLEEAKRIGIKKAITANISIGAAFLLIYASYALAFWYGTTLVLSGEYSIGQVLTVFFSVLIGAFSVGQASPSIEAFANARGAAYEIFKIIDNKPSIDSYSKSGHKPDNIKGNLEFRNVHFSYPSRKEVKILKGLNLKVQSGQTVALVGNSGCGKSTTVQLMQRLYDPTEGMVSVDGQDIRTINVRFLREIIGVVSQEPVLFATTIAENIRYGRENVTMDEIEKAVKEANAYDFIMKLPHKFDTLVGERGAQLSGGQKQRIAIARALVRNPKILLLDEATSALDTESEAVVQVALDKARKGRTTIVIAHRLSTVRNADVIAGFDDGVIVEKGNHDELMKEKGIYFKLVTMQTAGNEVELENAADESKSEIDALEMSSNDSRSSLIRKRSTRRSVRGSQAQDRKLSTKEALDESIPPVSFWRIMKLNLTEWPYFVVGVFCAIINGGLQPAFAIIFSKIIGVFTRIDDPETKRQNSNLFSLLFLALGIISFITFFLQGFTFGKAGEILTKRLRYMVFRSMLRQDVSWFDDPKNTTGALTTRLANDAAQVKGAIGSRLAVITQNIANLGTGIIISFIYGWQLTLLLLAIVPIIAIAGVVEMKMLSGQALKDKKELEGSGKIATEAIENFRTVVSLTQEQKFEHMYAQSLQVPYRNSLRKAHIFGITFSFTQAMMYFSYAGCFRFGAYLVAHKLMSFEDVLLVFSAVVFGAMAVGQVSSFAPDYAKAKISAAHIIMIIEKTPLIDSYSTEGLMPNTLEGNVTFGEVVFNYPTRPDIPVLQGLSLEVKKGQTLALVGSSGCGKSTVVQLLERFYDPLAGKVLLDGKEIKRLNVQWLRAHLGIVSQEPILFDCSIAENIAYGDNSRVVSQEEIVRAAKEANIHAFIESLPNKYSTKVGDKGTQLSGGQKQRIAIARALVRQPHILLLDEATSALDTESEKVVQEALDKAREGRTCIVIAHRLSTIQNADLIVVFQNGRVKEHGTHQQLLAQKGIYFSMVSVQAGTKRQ
smiles,measurement,setting,value
C/C1=C\[C@@H]2[C@H](CC[C@@]3(C)O[C@@H]3[C@H]3[C@@H](O)[C@@H](COC(=O)c4ccccc4)C[C@]3(OC(=O)/C=C/c3ccccc3)C1=O)C2(C)C [LATILAGASCENE D],logP,[1],7.2
C/C1=C\[C@@H]2[C@H](CC[C@@]3(C)O[C@@H]3[C@H]3[C@@H](O)[C@@H](C)C[C@]3(OC(=O)c3ccccc3)C1=O)C2(C)C [LATILAGASCENE F],logP,[1],5.3
C/C1=C\[C@@H]2[C@H](CC[C@@]3(C)O[C@@H]3[C@H]3[C@@H](O)[C@@H](CO)C[C@]3(OC(=O)/C=C/c3ccccc3)C1=O)C2(C)C [LATILAGASCENE B],logP,[1],4.8
C=C1[C@@H](OC(=O)C(C)C)[C@@H](OC(C)=O)C(=O)C(C)(C)/C=C/[C@H](C)[C@H](OC(=O)c2ccccc2)[C@@]2(O)C[C@H](C)[C@H](OC(C)=O)[C@@H]2[C@H]1OC(C)=O [TUCKEYANOL B],Ratio,[2],25
same,Flu intensity,[3],347.6
same,Ratio,[4],97.3
same,Flu intensity,[5],1353.2
same,IC50,[6],19.4 µg/mL
same,IC50,[7],12 µg/mL
same,logP,[1],4
same,fractional inhibitory concentration index (FICI),[8],0.25
CC(=O)OC[C@H]1C[C@]2(OC(=O)/C=C/c3ccccc3)C(=O)/C(C)=C/[C@@H]3[C@H](CC[C@@]4(C)O[C@@H]4[C@H]2[C@H]1O)C3(C)C [LATILAGASCENE A],logP,[1],5.5
C=C1[C@@H](OC(=O)c2ccccc2)[C@@H](OC(C)=O)[C@@H](OC(C)=O)C(C)(C)/C=C/[C@H](C)C(=O)[C@@]2(OC(C)=O)C[C@@](C)(OC(=O)c3ccccc3)[C@H](OC(C)=O)[C@@H]2[C@H]1OC(C)=O [EUPHOTUCKEYANOL],Ratio,[2],81
same,Flu intensity,[3],1127.4
same,Ratio,[4],106.2
same,Flu intensity,[5],1476.7
same,IC50,[6],45 µg/mL
same,IC50,[7],22.8 µg/mL
same,logP,[1],6.7
same,fractional inhibitory concentration index (FICI),[8],0.08
CCC(=O)OC[C@H]1C[C@]2(OC(=O)/C=C/c3ccccc3)C(=O)/C(C)=C/[C@@H]3[C@H](CC[C@@]4(C)O[C@@H]4[C@H]2[C@H]1OC(=O)CC)C3(C)C [LATILAGASCENE H],Ratio,[2],61.6
same,Flu intensity,[3],427.4
same,Ratio,[4],78
same,Flu intensity,[5],541.3
same,IC50,[6],25.3 µg/mL
same,IC50,[7],17.5 µg/mL
same,logP,[1],6.9
same,fractional inhibitory concentration index (FICI),[8],0.07
C=C1[C@@H](OC(=O)C(C)CC)[C@@H](OC(C)=O)C(=O)C(C)(C)/C=C/[C@H](C)[C@H](OC(=O)c2ccccc2)[C@@]2(O)C[C@H](C)[C@H](OC(C)=O)[C@@H]2[C@H]1OC(C)=O (stereo not given in full) [TUCKEYANOL A],Ratio,[2],39.8
same,Flu intensity,[3],554
same,Ratio,[4],98.9
same,Flu intensity,[5],1375.6
same,IC50,[6],25.8 µg/mL
same,IC50,[7],17.6 µg/mL
same,logP,[1],4.5
same,fractional inhibitory concentration index (FICI),[8],0.18
CC(=O)OC[C@H]1C[C@]2(OC(=O)/C=C/c3ccccc3)C(=O)/C(C)=C/[C@@H]3[C@H](CC[C@@]4(C)O[C@@H]4[C@H]2[C@H]1OC(C)=O)C3(C)C [LATILAGASCENE C],logP,[1],6.2
C/C1=C\[C@@H]2[C@H](CC[C@@]3(C)O[C@@H]3[C@H]3[C@@H](O)[C@@H](C)C[C@]3(OC(=O)/C=C/c3ccccc3)C1=O)C2(C)C [JOLKINOL B],logP,[1],5.8
CC1(C)[C@@H]2/C=C(\CO)C(=O)[C@@]3(OC(=O)/C=C/c4ccccc4)C[C@H](COC(=O)c4ccccc4)[C@H](O)[C@@H]3[C@H]3O[C@]3(C)CC[C@@H]21 [LATILAGASCENE E],logP,[1],5.9
CC(=O)O[C@H]1[C@@H](COC(=O)c2ccccc2)C[C@]2(OC(=O)/C=C/c3ccccc3)C(=O)/C(C)=C/[C@@H]3[C@H](CC[C@@]4(C)O[C@@H]4[C@@H]12)C3(C)C [LATILAGASCENE G],Ratio,[2],68.9
same,Flu intensity,[3],478.3
same,Ratio,[4],71.6
same,Flu intensity,[5],496.6
same,IC50,[6],32.2 µg/mL
same,IC50,[7],28 µg/mL
same,logP,[1],7.9
same,fractional inhibitory concentration index (FICI),[8],0.14
CCCC(=O)OC[C@H]1C[C@]2(OC(=O)/C=C/c3ccccc3)C(=O)/C(C)=C/[C@@H]3[C@H](CC[C@@]4(C)O[C@@H]4[C@H]2[C@H]1OC(=O)CCC)C3(C)C [LATILAGASCENE I],Ratio,[2],62.4
same,Flu intensity,[3],433.4
same,Ratio,[4],54.2
same,Flu intensity,[5],376.5
same,IC50,[6],23.9 µg/mL
same,IC50,[7],17.3 µg/mL
same,logP,[1],8
same,fractional inhibitory concentration index (FICI),[8],0.14

# From ChEMBL document CHEMBL1142477, “Synergistic interaction between p-glycoprotein modulators and epirubicine on resistant cancer cells” (Bioorg Med Chem, 2008)
